# According to ChEMBL document CHEMBL1151511, “Structure-based design of an inhibitor modeled at the substrate active site of aldose reductase” (Bioorg Med Chem Lett, 1997):
# Legend:
# [1] = target: T1, Aldo-keto reductase family 1 member B1 (Bos taurus, UniProt P16116); assay: Inhibitory activity of compound against modified enzyme form of S-glutathionyl Aldose reductase
# [2] = target: T1, Aldo-keto reductase family 1 member B1; assay: Tested for inhibition of bovine lens Aldose reductase (ALR2), expressed as IC50
# [3] = target: T1, Aldo-keto reductase family 1 member B1; assay: Inhibitory activity of compound against modified enzyme form of S-glutathionyl Aldose reductase; Inactive
IC50 [1] [µM],IC50 [2] [µM],IC50 [3],Compound
17,0.15,,O=C(O)Cn1nc2c(c(Cc3nc4cc(C(F)(F)F)ccc4s3)c1=O)CCc1ccccc1-2
,12,Not Active,O=C(O)Cn1nc2c(cc1=O)CCc1ccccc1-2
